According to paper PMC2905291, “A phase I study of the safety and pharmacokinetics of the histone deacetylase inhibitor belinostat administered in combination with carboplatin and/or paclitaxel in patients with solid tumours” (British Journal of Cancer, 2010):
Like-named read-outs stand apart in the source and are kept apart here.

Assays:
[1] = Paclitaxel plasma pharmacokinetics in patients after belinostat (LC-MS/MS, non-compartmental); format: in vivo, human
Method: (§1) Blood samples for belinostat PK, when administered alone were taken pre-treatment, at the end of infusion and 5 min, 15, 30 min, 1 h, 2, 3 h, 3 h 15 min, 3 h 30 min, 4, 5, 6 h after infusion on days 1 and 3 of cycle 1. Samples for carboplatin or paclitaxel when administered after belinostat, were taken relative to the start of belinostat infusion at 3 h (pre-carboplatin or-paclitaxel), 3 h 15 min, 3 h 30 min, 4, 5 and 6 h in cycle 1 on day 3. In addition, samples were taken for BelCaP when administered together at 6 h 15 min, 6 h 30 min, 7, 8, 9 and 24 h after belinostat on day 3. Belinostat and paclitaxel levels were determined in lithium-heparinised plasma using validated solid-phase extraction high performance liquid chromatograpgy (HPLC)-tandem mass spectrometric detection (MS/MS) methods (Covance, Indianapolis, IN, USA). The lower limit of quantitation was 5 and 10 ng ml^−1 for belinostat and paclitaxel, respectively. Belinostat plasma concentrations were determined at Covance using a validated method involving solid-phase extraction, separation with acetic acid acetonitril gradient on reversed phase C18 silica and MS/MS using penta-deuterated belinostat as the internal standard. Belinostat and the internal standard were detected using negative ion electron spray with the transition from 317 to 143 and 322 to 143 m z^−1, respectively.
Paclitaxel and the internal standard, cephalomannine, are extracted from human plasma by solid-phase extraction on a cyanopropyl solid-phase extraction cartridge. After eluting with the mobile phase, the eluent is directly analysed using liquid chromatography with MS/MS. The standard curve range for this assay is from 10.0 to 2000 ng ml^−1 for paclitaxel, using a plasma sample volume of 0.250 ml.
(§2) Plasma concentration–time curves of all three analytes were analysed by non-compartmental methods using WinNonlin (version 4.0.1 Pharsight Corp., Cary, NC, USA). For all analytes the AUC was estimated from the start of infusion by the logarithmic-linear trapezoidal rule and extrapolated to infinity using the estimated value of the slope of the terminal logarithmic-linear disposition phase. Analysis was carried out on the non-dose-normalised plasma concentration of carboplatin, as dosing had already been normalised per GFR using Calvert's formula ([Calvert et al, 1989]).

[2] = test system: patients with advanced solid malignancies; parameters: method as in Ramalingam et al, 2007a; settings: ref Ramalingam et al, 2007a, cited from earlier work
[3] = test system: patients with solid tumours; settings: ref Munster et al, cited from earlier work; for patients who responded: valproic acid with epirubicin, 2009
[4] = Carboplatin (platinum by ICP-MS) plasma pharmacokinetics in patients after belinostat and paclitaxel; format: in vivo, human; settings: for AUCall / AUCinf / Cl / Cmax / T1/2 / Vss: mean±s.d.
Method: as §1
Human plasma samples were analysed for Pt from carboplatin by inductively coupled plasma-mass spectrometry after dilution with 0.01% Triton X-100 in 0.1% nitric acid. The samples were analysed without pre-digestion or extraction directly against matrix-matched standard solutions. Intensity, as counts per second from Pt, mass 195, was measured. Terbium, mass 159, was used as an internal standard. The results were calculated from the net intensity ratio of Pt to internal standard. The standard curve range was 2.00–1000 ng Pt ml^−1 in plasma. Samples above the calibration range were diluted using blank human plasma.
as §2

[5] = human, plasma, iv, paclitaxel 175 mg m^−2 i.v. day 3 after belinostat 600 mg m^−2, 6 patients, mean±s.d.
[6] = human, plasma, iv, paclitaxel 175 mg m^−2 i.v. day 3 after belinostat 800 mg m^−2, 3 patients, mean±s.d.
[7] = human, plasma, iv, paclitaxel 175 mg m^−2 i.v. day 3 after belinostat 1000 mg m^−2, 7 patients, mean±s.d.
[8] = paclitaxel 175 mg m^−2 i.v. day 3 after belinostat 600 mg m^−2, 6 patients, mean±s.d.
[9] = paclitaxel 175 mg m^−2 i.v. day 3 after belinostat 800 mg m^−2, 3 patients, mean±s.d.
[10] = paclitaxel 175 mg m^−2 i.v. day 3 after belinostat 1000 mg m^−2, 7 patients, mean±s.d.
[11] = vorinostat with carboplatin and paclitaxel, 25 patients treated
[12] = valproic acid combined with epirubicin, 2007
[13] = carboplatin equivalents from total platinum, target AUC 5 i.v. day 3 after belinostat 600 mg m^−2 and paclitaxel, 7 patients
[14] = carboplatin equivalents from total platinum, target AUC 5 i.v. day 3 after belinostat 800 mg m^−2 and paclitaxel, 3 patients
[15] = carboplatin equivalents from total platinum, target AUC 5 i.v. day 3 after belinostat 1000 mg m^−2 and paclitaxel, 7 patients
[16] = carboplatin equivalents, target AUC 5 i.v. day 3, Total Mean over all belinostat dose levels

`CC(=O)O[C@H]1C(=O)[C@@]2(C)[C@H]([C@H](OC(=O)c3ccccc3)[C@]3(O)C[C@H](OC(=O)[C@H](O)[C@@H](NC(=O)c4ccccc4)c4ccccc4)C(C)=C1C3(C)C)[C@]1(OC(C)=O)CO[C@@H]1C[C@@H]2O` [paclitaxel] showed an AUC [1, 5] of 14 ± 2.5 µM·h, an AUC(0-inf) [1, 5] of 14.7 ± 2.6 µM·h and a Cmax [1, 5] of 3.9 ± 0.7 µM. It also gave a half-life [1, 5] of 5.7 ± 0.5 h, an AUC [1, 6] of 12.8 ± 1.7 µM·h and an AUC(0-inf) [1, 6] of 13.3 ± 2 µM·h. The half-life [1, 6] was 5.5 ± 1.1 h, the AUC [1, 7] was 14.4 ± 3.8 µM·h and the AUC(0-inf) [1, 7] was 15 ± 4 µM·h. For the same molecule, the half-life [1, 7] was 5.5 ± 0.6 h, the Cl [1, 8] was 14.3±2.2 l h^−1 m^−2 and the Vss [1, 8] was 56.6±21.2 l m^−2. For the same molecule, the Cl [1, 9] was 15.7±2.6 l h^−1 m^−2, the Vss [1, 9] was 53.0±3.0 l m^−2 and the Cl [1, 10] was 14.8±4.9 l h^−1 m^−2. The Vss [1, 10] was 57.2±31.7 l m^−2 and the “effect of concurrent administration on pharmacokinetics” value ([1]; paclitaxel after belinostat) was “unaltered”.
For `O=C(CCCCCCC(=O)Nc1ccccc1)NO` [vorinostat], the “grade III/IV neutropenia, patients” value ([2]; vorinostat with carboplatin and paclitaxel at higher dose than present study) is listed as 50%, the “patients with PR, head and neck cancer” value [2, 11] is listed as 1 and the “patients with PR, non-small-cell lung cancer” value [2, 11] is listed as 10.
For `CCCC(CCC)C(=O)O` [valproic acid], the dose-limiting toxicities [3, 12] is listed as “neurological DLTs”, the “grade II–III QTc prolongation, patients” value [3, 12] is listed as “approximately 25%” and the patients who responded ([3]; of 41 patients with a variety of solid tumours) is listed as 9. For the same molecule, the patients who responded ([3]; phase II portion, breast cancer) was 64%.
For `N.N.O=C([O-])C1(C(=O)[O-])CCC1.[Pt+2]` [carboplatin], the “effect of concurrent administration on pharmacokinetics” value ([4]; carboplatin after belinostat) was “unaltered”, the AUCall [4, 13] was 7.8 ± 1.4 mg·min/mL and the AUCinf [4, 13] was 8.8 ± 1.3 mg·min/mL. The Cl [4, 13] was 4.4 ± 0.9 L/h, the Cmax [4, 13] was 27400 ± 4000 ng/mL and the T1/2 [4, 13] was 7.8 ± 2.7 h. The Vss [4, 13] was 34.3 ± 16.1 L, the AUCall [4, 14] was 8.9 ± 2.1 mg·min/mL and the AUCinf [4, 14] was 9.7 ± 1.9 mg·min/mL. The Cl [4, 14] was 4.1 ± 0.5 L/h, the Cmax [4, 14] was 32800 ± 11700 ng/mL and the T1/2 [4, 14] was 5.4 ± 1.0 h. It also gave a Vss [4, 14] of 21.9 ± 7.6 L, an AUCall [4, 15] of 8.4 ± 1.0 mg·min/mL and an AUCinf [4, 15] of 9.3 ± 1.1 mg·min/mL. The Cl [4, 15] was 3.5 ± 0.8 L/h, the Cmax [4, 15] was 29600 ± 14000 ng/mL and the T1/2 [4, 15] was 6.0 ± 0.8 h. It also gave a Vss [4, 15] of 20.4 ± 3.5 L, an AUCall [4, 16] of 8.2 ± 1.4 mg·min/mL and an AUCinf [4, 16] of 9.2 ± 1.3 mg·min/mL. It also gave a Cl [4, 16] of 3.9 ± 0.8 L/h, a Cmax [4, 16] of 29200 ± 1000 ng/mL and a T1/2 [4, 16] of 6.6 ± 2.1 h. For the same molecule, the Vss [4, 16] was 26.4 ± 12.5 L.
